# Earlier results as cited in patent US6638954B2, “Δ2-1,2,3-TRIAZOLINE ANTICONVULSANTS AND THEIR ACTIVE METABOLITE ANALOGUES, THE AMINOALKYLPYRIDINES, ARE EXCITATORY AMINO ACID ANTAGONISTS AND ANTIISCHEMIC AGENTS, USEFUL IN THE TREATMENT OF CEREBRAL ISCHEMIA RESULTING FROM STROKE” (K and K Biosciences, Inc., priority 2000, dated 2003).
# Columns and labels:
# amygdala-kindled rats = settings: non-sedative, non-neurotoxic doses
# entorhinal-kindled rats = settings: non-sedative, non-neurotoxic doses
# [1] = system: N-methyl D-aspartate (NMDA)-induced seizures; settings: mouse
substance,measurement,setting,value
"1-(p-Chlorophenyl)-5-(4-pyridyl)-Δ^2-1,2,3-triazoline [Table IV (2)]","ED50, protection against after-discharge seizures and generalized convulsions",amygdala-kindled rats,215 ± 61 mg/kg
same,"ED50, protection against after-discharge seizures and generalized convulsions",entorhinal-kindled rats,423 ± 45 mg/kg
same,Protection against NMDA-induced seizures/convulsions,[1],complete protection
